Here are results for seven molecules from patent US8133884B2, “Compounds for the treatment of hepatitis C” (priority 2008, dated 2012).

The first assay concerns HCV replicon. Kind of assay: HCV replicon assay (FRET or luciferase reporter). Type of assay: cell-based. Conditions: Hepatitis C virus, one of the methods described, class symbol. An excerpt:
To perform the HCV FRET screening assay, 96-well cell culture plates were used, The FRET peptide (Anaspec, Inc.) (Taliani et al., Anal. Biochem., 240:60-67 (1996)) contains a fluorescence donor, EDANS, near one end of the peptide and an acceptor, DABCYL, near the other end. The fluorescence of the peptide is quenched by […] resonance energy transfer (RET) between the donor and the acceptor, but as the NS3 protease cleaves the peptide the products are released from RET quenching and the fluorescence of the donor becomes apparent. The assay reagent was made as follows: 5× cell Luciferase cell culture lysis reagent from Promega (#E153A) diluted to 1× with dH2O, NaCl added to 150 mM final, the FRET peptide diluted to 20 μM final from a 2 mM stock.
To prepare plates, HCV replicon cells, with or without a Renilla luciferase reporter gene, were trypsinized and placed into each well of a 96-well plate with titrated test compounds added in columns 3 through 12; columns 1 and 2 contained a control compound (HCV protease inhibitor), and the bottom row contained cells without compound. The plates were then placed in a CO2 incubator at 37° C.
Subsequent to addition of the test compounds described above (FRET Assay Preparation), at various times the plate was removed and Alamar blue solution (Trek Diagnostics, #00-100) was added per well as a measure of cellular toxicity. After reading in a CYTOFLUOR® 4000 instrument (PE Biosystems), plates were rinsed with PBS and then used for FRET assay by the addition of 30 ul of the FRET peptide assay reagent described above (FRET Assay Preparation) per well. The plate was then placed into the CYTOFLUOR® 4000 instrument which had been set to 340 excite/490 emission, automatic mode for 20 cycles and the plate read in a kinetic mode. Typically, the signal to noise using an endpoint analysis after the reads was at least three-fold. Alternatively, after Alamar blue reading, plates were rinsed with PBS, 50 ul of DMEM (high glucose) without phenol red was added and plates were then used for luciferase assay using the Promega DUAL-GLO® Luciferase Assay System.
Compound analysis was determined by quantification of the relative HCV replicon inhibition and the relative cytotoxicity values. To calculate cytoxicity values, the average Alamar Blue fluorescence signals from the control wells were set as 100% non-toxic. The individual signals in each of the compound test wells were then divided by the average control signal and multiplied by 100% to determine […]. To calculate the HCV replicon inhibition values, an average background value was obtained from the two wells containing the highest amount of HCV protease inhibitor at the end of the assay period. These numbers were similar to those obtained from naïve Huh-7 cells.
The background numbers were then subtracted from the average signal obtained from the control wells and this number was used as 100% activity. The individual signals in each of the compound test wells were then divided by the averaged control values after background subtraction and multiplied by 100% to determine percent activity. EC50 values for a protease inhibitor titration were calculated as the concentration which caused a 50% reduction in FRET or luciferase activity. The two numbers generated for the compound plate, percent cytoxicity and percent activity were used to determine compounds of interest for further analysis.
The HCV replicon luciferase assay was developed to monitor the inhibitory effects of compounds described in the disclosure on HCV viral replication. Utilization of a replicon luciferase reporter assay was first described by Krieger et al (Krieger, N. et al., J. Virology, 75(10):4614-4624 (2001)). HUH-7 cells, constitutively expressing the HCV replicon, were grown in Dulbecco's Modified Eagle Media (DMEM) (Gibco-BRL) containing 10% Fetal calf serum (FCS) (Sigma) and 1 mg/ml G418 (Gibco-BRL). […]
(In antiviral work, replicon cells carry a viral genome segment that copies itself.)
As to `COc1ccc2c(c1)C=C(c1c(C(=O)N3C4CCC3CN(C)C4)cnn1C1CCC1)Cn1c-2c(C2CCCCC2)c2ccc(C(=O)NS(=O)(=O)CC(C)C)cc21`, the concentration giving a half-maximal response (EC50) was in the range of 1.7 to 500 nM.

Regarding `COc1ccc2c(c1)C=C(c1c(C(=O)N3CCN(C)CC3)cnn1C1CCC1)Cn1c-2c(C2CCCCC2)c2ccc(C(=O)NS(=O)(=O)C(C)C)cc21`, the concentration giving a half-maximal response (EC50) was in the range of 1.7 to 500 nM.

As to `COc1ccc2c(c1)C=C(c1c(C(=O)N3C[C@@H]4C[C@H]3CO4)cnn1C1CCC1)Cn1c-2c(C2CCCCC2)c2ccc(C(=O)NS(=O)(=O)C(C)C)cc21`, the 50% effective concentration (EC50) was 1.7 to 500 nM.

As for `COc1ccc2c(c1)C=C(c1c(C(=O)N3C[C@@H]4C[C@H]3CN4CC3CC3)cnn1C1CCC1)Cn1c-2c(C2CCCCC2)c2ccc(C(=O)NS(=O)(=O)C(C)C)cc21`, the half-maximal effective concentration (EC50) was in the range of 1.7 to 500 nM.

Take `COc1ccc2c(c1)C=C(c1c(C(=O)N3CCN4CCC[C@H]4C3)cnn1C1CCC1)Cn1c-2c(C2CCCCC2)c2ccc(C(=O)NS(=O)(=O)C(C)C)cc21`: the EC50 is 1.7 to 500 nM.

With `COc1ccc2c(c1)C=C(c1c(C(=O)N3C[C@]4(C)CN(C)C[C@](C)(C3)C4)cnn1C1CCC1)Cn1c-2c(C2CCCCC2)c2ccc(C(=O)NS(=O)(=O)C(C)C)cc21`, the 50% effective concentration (EC50) was in the range of 1.7 to 500 nM.

`COc1ccc2c(c1)C=C(c1c(C(=O)N3CCCOCC3)cnn1C1CCC1)Cn1c-2c(C2CCCCC2)c2ccc(C(=O)NS(=O)(=O)C(C)C)cc21` had a concentration for a half-maximal effect (EC50) of 1.7 to 500 nM.

Staying with this assay, now noted: Hepatitis C virus, one of the methods described, exact value.
Take `COc1ccc2c(c1)C=C(c1c(C(=O)N3C4CCC3CN(C)C4)cnn1C1CCC1)Cn1c-2c(C2CCCCC2)c2ccc(C(=O)NS(=O)(=O)CC(C)C)cc21`: the response was half-maximal at 8.1 nM (EC50).

In turn, `COc1ccc2c(c1)C=C(c1c(C(=O)N3C[C@@H]4C[C@H]3CO4)cnn1C1CCC1)Cn1c-2c(C2CCCCC2)c2ccc(C(=O)NS(=O)(=O)C(C)C)cc21` came in with an EC50 of 30 nM.

For the molecule `COc1ccc2c(c1)C=C(c1c(C(=O)N3CCCOCC3)cnn1C1CCC1)Cn1c-2c(C2CCCCC2)c2ccc(C(=O)NS(=O)(=O)C(C)C)cc21`, the midpoint of the response, the EC50, lay at 7.6 nM.

A further assay deals with T1, HCV NS5B (Hepatitis C virus genotype 1b, UniProt Q9WMX2).
T1 construct: The protein was expressed with an 18 amino acid C-terminal truncation to enhance the solubility; made in house; host or cells: E. coli BL21(DE3)
T1 sequence (Q9WMX2 2420-2992): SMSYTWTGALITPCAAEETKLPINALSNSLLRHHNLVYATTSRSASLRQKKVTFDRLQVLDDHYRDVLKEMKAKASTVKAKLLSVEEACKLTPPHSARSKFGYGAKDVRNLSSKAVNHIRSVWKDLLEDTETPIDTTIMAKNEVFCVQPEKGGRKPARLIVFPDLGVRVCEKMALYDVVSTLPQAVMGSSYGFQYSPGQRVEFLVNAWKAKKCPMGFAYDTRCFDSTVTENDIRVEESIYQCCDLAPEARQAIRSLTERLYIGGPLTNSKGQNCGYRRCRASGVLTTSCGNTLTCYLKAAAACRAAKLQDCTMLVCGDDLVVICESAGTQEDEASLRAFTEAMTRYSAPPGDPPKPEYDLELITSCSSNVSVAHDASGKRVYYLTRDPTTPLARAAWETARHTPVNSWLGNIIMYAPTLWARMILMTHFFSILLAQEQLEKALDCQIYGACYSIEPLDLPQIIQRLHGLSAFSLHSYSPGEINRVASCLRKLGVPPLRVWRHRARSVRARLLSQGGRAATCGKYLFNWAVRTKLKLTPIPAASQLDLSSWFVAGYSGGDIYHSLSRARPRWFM
Nature of the assay: Modified HCV NS5B RdRp enzyme assay (preincubation protocol). Type of assay: biochemical. Conditions: class symbol. Here is the method: The cDNA encoding the NS5B protein of HCV, genotype 1b, was cloned into the pET21a expression vector. The protein was expressed with an 18 amino acid C-terminal truncation to enhance the solubility. The E. coli competent cell line BL21(DE3) was used for expression of the protein. Cultures were grown at 37° C. for ˜4 hours until the cultures reached an optical density of 2.0 at 600 nm. The cultures were cooled to 20° C. and induced with 1 mM IPTG. Fresh ampicillin was added to a final concentration of 50 μg/ml and the cells were grown overnight at 20° C.
Cell pellets (3 L) were lysed for purification to yield 15-24 mgs of purified NS5B. The lysis buffer consisted of 20 mM Tris-HCl, pH 7.4, 500 mM NaCl, 0.5% triton X-100, 1 mM DTT, 1 mM EDTA, 20% glycerol, 0.5 mg/ml lysozyme, 10 mM MgCl2, 15 ug/ml deoxyribonuclease I, and Complete TM protease inhibitor tablets (Roche). After addition of the lysis buffer, frozen cell pellets were resuspended using a tissue homogenizer. To reduce the viscosity of the sample, aliquots of the lysate were sonicated on ice using a microtip attached to a Branson sonicator. The sonicated lysate was centrifuged at 100,000×g for 1 hr at 4° C. and filtered through a 0.2 μm filter unit (Corning).
The protein was purified using three sequential chromatography steps: Heparin sepharose CL-6B, polyU sepharose 4B, and […] SP sepharose (Pharmacia). The chromatography buffers were identical to the lysis buffer but contained no lysozyme, deoxyribonuclease I, MgCl2 or protease inhibitor and the NaCl concentration of the buffer was adjusted according to the requirements for charging the protein onto the column. Each column was eluted with a NaCl gradient which varied in length from 5-50 column volumes depending on the column type. After the final chromatography step, the resulting purity of the enzyme is >90% based on SDS-PAGE analysis. The enzyme was aliquoted and stored at −80° C.
HCV RdRp genotype 1b assays were run in a final volume of 60 μl in 96 well plates (Costar 3912). The assay buffer is composed of 20 mM Hepes, pH 7.5, 2.5 mM KCl, 2.5 mM MgCl2, 1 mM DTT, 1.6 U RNAse inhibitor (Promega N2515), 0.1 mg/ml BSA (Promega R3961), and 2% glycerol. All compounds were serially diluted (3-fold) in DMSO and diluted further in water such that the final concentration of DMSO in the assay was 2%. HCV RdRp genotype 1b enzyme was used at a final concentration of 28 nM. A polyA template was used at 6 nM, and a biotinylated oligo-dT12 primer was used at 180 nM final concentration. Template was obtained commercially (Amersham 27-4110). Biotinylated primer was prepared by Sigma Genosys. 3H-UTP was used at 0.6 μCi (0.29 μM total UTP). Reactions were initiated by the addition of enzyme, incubated at 30° C. for 60 min, and stopped by adding 25 μl of 50 mM EDTA containing SPA beads (4 μg/μl, Amersham RPNQ 0007). Plates were read on a Packard TOPCOUNT® NXT after >1 hr incubation at room temperature.
A modified enzyme assay was performed essentially as described for the standard enzyme assay except for the following: The biotinylated oligo dT12 primer was precaptured on streptavidin-coated SPA beads by mixing primer and beads in assay buffer and incubating at room temperature for one hour. Unbound primer was removed after centrifugation. The primer-bound beads were resuspended in 20 mM Hepes buffer, pH 7.5 and used in the assay at final concentrations of 20 nM primer and 0.67 μg/μl beads. Order of addition in the assay: enzyme (14 nM) was added to diluted compound followed by the addition of a mixture of template (0.2 nM), 3H-UTP (0.6 μCi, 0.29 μM), and primer-bound beads, to initiate the reaction; concentrations given are final. Reactions were allowed to proceed for 4 hours at 30° C.
IC50 values for compounds were determined using seven different [I]. IC50 values were calculated from the inhibition using the formula y=A+((B−A)/(1+((C/x)^D))).
In turn, `COc1ccc2c(c1)C=C(c1c(C(=O)N3C4CCC3CN(C)C4)cnn1C1CCC1)Cn1c-2c(C2CCCCC2)c2ccc(C(=O)NS(=O)(=O)CC(C)C)cc21` displayed a half-maximal inhibitory concentration (IC50) of 1.7 to 500 nM.

In turn, `COc1ccc2c(c1)C=C(c1c(C(=O)N3CCN(C)CC3)cnn1C1CCC1)Cn1c-2c(C2CCCCC2)c2ccc(C(=O)NS(=O)(=O)C(C)C)cc21` registered an IC50 of 1.7 to 500 nM.

With `COc1ccc2c(c1)C=C(c1c(C(=O)N3C[C@@H]4C[C@H]3CO4)cnn1C1CCC1)Cn1c-2c(C2CCCCC2)c2ccc(C(=O)NS(=O)(=O)C(C)C)cc21`, the half-inhibitory concentration (IC50) was 1.7 to 500 nM.

Molecule `COc1ccc2c(c1)C=C(c1c(C(=O)N3C[C@@H]4C[C@H]3CN4CC3CC3)cnn1C1CCC1)Cn1c-2c(C2CCCCC2)c2ccc(C(=O)NS(=O)(=O)C(C)C)cc21` came in with a half-maximal inhibitory concentration (IC50) of 1.7 to 500 nM.

In turn, `COc1ccc2c(c1)C=C(c1c(C(=O)N3CCN4CCC[C@H]4C3)cnn1C1CCC1)Cn1c-2c(C2CCCCC2)c2ccc(C(=O)NS(=O)(=O)C(C)C)cc21` displayed an IC50 of 1.7 to 500 nM.

As for `COc1ccc2c(c1)C=C(c1c(C(=O)N3C[C@]4(C)CN(C)C[C@](C)(C3)C4)cnn1C1CCC1)Cn1c-2c(C2CCCCC2)c2ccc(C(=O)NS(=O)(=O)C(C)C)cc21`, the IC50 lay in the range of 1.7 to 500 nM.

On to `COc1ccc2c(c1)C=C(c1c(C(=O)N3CCCOCC3)cnn1C1CCC1)Cn1c-2c(C2CCCCC2)c2ccc(C(=O)NS(=O)(=O)C(C)C)cc21`, for which the 50% inhibitory concentration (IC50) was in the range of 1.7 to 500 nM.

Staying with this assay, now noted: exact value.
Consider `COc1ccc2c(c1)C=C(c1c(C(=O)N3C4CCC3CN(C)C4)cnn1C1CCC1)Cn1c-2c(C2CCCCC2)c2ccc(C(=O)NS(=O)(=O)CC(C)C)cc21`, for which the midpoint of inhibition, the IC50, lay at 3.3 nM.

With `COc1ccc2c(c1)C=C(c1c(C(=O)N3C[C@@H]4C[C@H]3CO4)cnn1C1CCC1)Cn1c-2c(C2CCCCC2)c2ccc(C(=O)NS(=O)(=O)C(C)C)cc21`, half-maximal inhibition (IC50) was put at 5.4 nM.

`COc1ccc2c(c1)C=C(c1c(C(=O)N3CCCOCC3)cnn1C1CCC1)Cn1c-2c(C2CCCCC2)c2ccc(C(=O)NS(=O)(=O)C(C)C)cc21` yielded a 50% inhibitory concentration (IC50) of 5.4 nM.

In general, EC50 refers to the concentration needed to bring the measured effect to its halfway point. High values mean a less potent agent, low ones a more potent agent. For orientation: IC50 means the concentration needed to halve the response being measured. The low end stands for inhibition by little substance, the high end for a need for much substance.
